According to US20090023741A1, “ARYL/HETARYLAMIDES AS MODULATORS OF THE EP2 RECEPTOR” (priority 2007, published 2009):

Key:
[1] = molecular target: T1, EP2 subtype of the human PGE2 receptor (Homo sapiens, UniProt P43116); assay: cAMP antagonism assay (HTRF, PGE2-stimulated cells); format: cell-based; conditions: in presence of PGE2
T1 construct: host or cells: cells in a cell culture plate
Protocol: (§1) The binding of PGE2 to the EP2 subtype of the human PGE2 receptor induces activation of membrane-associated adenylate cyclases and leads to the formation of cAMP. In the presence of the phosphodiesterase inhibitor IBMX, cAMP which has accumulated due to this stimulation and been released by cell lysis is employed in a competitive detection method. In this assay, the cAMP in the lysate competes with cAMP-XL665 for binding of an Eu cryptate-labelled anti-cAMP antibody.
(§2) The two signals are measured in a suitable measuring instrument with a time lag, i.e. after the background fluorescence has declined.
(§3) The substance solutions (0.75 μl) introduced into an assay plate and 30% DMSO are dissolved in 16 μl of a KRSB+IBMX stimulation solution (1× Krebs-Ringer Bicarbonate Buffer; Sigma-Aldrich # K-4002; including 750 μM 3-isobutyl-1-methylxanthine Sigma-Aldrich # I-7018), and then 15 μl thereof are transferred into a media-free cell culture plate which has been washed with KRSB shortly beforehand.
After preincubation at room temperature (RT) for 30 minutes, 5 μl of a 4×PGE2 solution (11 nM) are added, and incubation is carried out in the presence of the agonist at RT for a further 60 min (volume: ˜20 μl) before the reaction is then stopped by adding 5 μl of lysis buffer and incubated at RT for a further 20 min (volume: 25 μl). The cell lysate is then transferred into a measuring plate and measured in accordance with the manufacturer's information (cyclic AMP kit Cisbio International # 62AMPPEC).

[2] = molecular target: T1, EP2 subtype of the human PGE2 receptor; assay: cAMP agonism assay (cellular agonism test); format: cell-based; conditions: without PGE2
Protocol: as §1, §2, §3
After incubation at room temperature (RT; volume: ˜15 μl) for 60 minutes, the reaction is then stopped by adding 5 μl of lysis buffer and incubated at RT for a further 20 min (volume: ˜20 μl). The cell lysate is then transferred into a measuring plate and measured in accordance with the manufacturer's information (cyclic AMP kit Cisbio International # 62AMPPEC).

[3] = system: cumulus-oocyte complexes (cumulus expansion); assay: Cumulus expansion assay in vitro; format: cell-based, mice; conditions: in competition with PGE2
Protocol: Folliculogenesis is induced in immature female mice (strain: CD1 (ICR) from Charles River) at an age of 14-18 days by a single dose (intraperitoneal) of 10 I.U. of PMSG (Pregnant Mare Serum Gonadotropine; Sigma G-4877, Lot 68H0909). 47-50 hours after the injection, the ovaries are removed and the cumulus-oocyte complexes are removed. The cumulus complex is not yet expanded at this stage.
The cumulus-oocyte complexes are then incubated with prostaglandin E2 (PGE2) (0.3 μM), vehicle control (ethanol) or test substances for 20-24 hours. Medium: alpha-MEM medium with 0.1 mM IBMX, pyruvates (0.23 mM) glutamines (2 mM), pen/strep 100 IU/ml pen. and 100 μg/ml strep.) and HSA (8 mg/ml)). Cumulus expansion is then established through the division into four stages (according to Vanderhyden et al. Dev Biol. 1990 August; 140(2):307-317).

T1 sequence (P43116 whole entry): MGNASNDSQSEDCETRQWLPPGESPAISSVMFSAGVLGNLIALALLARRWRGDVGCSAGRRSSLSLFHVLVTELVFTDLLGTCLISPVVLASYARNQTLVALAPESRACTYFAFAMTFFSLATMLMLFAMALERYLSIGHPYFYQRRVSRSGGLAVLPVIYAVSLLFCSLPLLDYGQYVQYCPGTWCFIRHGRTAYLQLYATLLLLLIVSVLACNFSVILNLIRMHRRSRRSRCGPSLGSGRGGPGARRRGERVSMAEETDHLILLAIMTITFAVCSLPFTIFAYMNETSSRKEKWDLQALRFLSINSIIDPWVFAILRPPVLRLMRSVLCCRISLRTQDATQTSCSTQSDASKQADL

Row | IC50 [1] [nM] | effect in the cellular agonism test [2] | SMILES | inhibition at 10 µM ([3]; Mus musculus, concentration 10 μM) [%] | inhibition of cumulus expansion ([3]; concentration 100-200 μM) [%]
1 | 6800 |  | COc1cc(C(=O)NCCc2c(C)[nH]c3c(F)ccc(C)c23)cc(OC)c1OC [Example 2, N-[2-(7-Fluoro-2,4-dimethyl-1H-indol-3-yl)ethyl]-3,4,5-trimethoxybenzamide] |  | 
2 | 1500 |  | Cc1[nH]c2c(F)ccc(C)c2c1CCNC(=O)c1ccc(C(F)(F)F)cc1 [Example 6, N-[2-(7-Fluoro-2,4-dimethyl-1H-indol-3-yl)ethyl]-4-trifluoromethylbenzamide] |  | 
3 | 1200 | no inhibition | Cc1[nH]c2c(F)ccc(C)c2c1CCNC(=O)c1ccc(-c2ccc(F)cc2)cc1 [Example 29, 4′-Fluorobiphenyl-4-carboxylic acid [2-(7-fluoro-2,4-dimethyl-1H-indol-3-yl)ethyl]amide] | ~20 | 
4 |  |  | CC(C)Oc1ccc2c(=O)c3cc(C(=O)O)ccc3oc2c1 [AH 6809, reference compound] |  | ~30
